20 compounds from patent US20160257697A1, “THIOPHENE-SUBSTITUTED TETRACYCLIC COMPOUNDS AND METHODS OFUSE THEREOF FOR THE TREATMENT OF VIRAL DISEASES” (priority 2013, published 2016) can be followed below.

Test in all cases: microbe, parasite or virus in culture
Holding throughout (assay type): cell-based, Hepatitis C virus (HCV)

One assay concerns HCV replicon 1A. Particulars: Replicon Assay A. The procedure, abridged:
(§1)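 Read-out is replicon RNA per cell by real-time RT-PCR, normalised to cyclophilin mRNA amplified in the same well. Cells were exposed to compound for 3 days at 2000 cells/well in medium with 5% fetal bovine serum and 0.5% DMSO.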
A general note: A replicon is a self-replicating genome or part of one, used to study replication in cells.

The test system of the next assay is HCV replicon 1B. The settings on record: Replicon Assay B. The procedure: In an alternate assay (“Replicon Assay B”), 1000 cells were seeded per well in a 384-well collagen coated black plate from Greiner bio-one (Cat #781946) in 5% FBS. Inhibitors of this invention were added at 24 h post-seeding, and the plates were incubated for 3 days. Cells were subsequently lysed with Qiagen lysis buffer (Cat #1062731) to extract the RNA. HCV replicon RNA level was measured by real-time PCR using the RNA-to-CT kit from Applied Biosystem (Cat #4392656) and genotype-specific primers and probes. The amplicon was located within NS5B. […] (SEQ. ID NO. 2); the probe sequence was FAM-labeled […] (SEQ. ID NO. 3).
The real-time RT-PCR reactions were run on ABI PRISM 7900HT or Viia7 Sequence Detection System using the following program: 48° C. for 30 minutes, 95° C. for 10 minutes, 40 cycles of 95° C. for 15 sec, 60° C. for 1 minutes.
Data for replicons 1A, 1AY93H and 2B were obtained using Replicon Assay A and data for replicons 1AQ30D and 1B were obtained using Replicon Assay B.

The test system of a further assay is HCV replicon 2B. Particulars: Replicon Assay A. The procedure, abridged: as §1
The test system of another assay is HCV replicon 1AY93H. The settings on record: Replicon Assay A. The procedure, abridged:
as §1

[1] abbreviates: Hepatitis C virus, HCV replicon 1A.
Setting [2] is: Hepatitis C virus, read-out: 1A Y93H IC50 (nM), replicon 1AY93H.
The mark [3] stands for this setting: Hepatitis C virus, read-out: 2B IC50 (nM), replicon 2B.
Setting [4] is: read-out: 1A Y93H IC50, replicon 1AY93H.
Setting [5] is: read-out: 1A Y93H IC50, HCV replicon 1A Y93H.
Setting [6] is: read-out: 2B IC50, HCV replicon 2B.

Read-outs that look alike come from different tables or passages of the source.

As for `CCc1ccc(C2Oc3cc(-c4cnc([C@@H]5CCCN5C(=O)[C@@H](NC(=O)OC)C(C)C)[nH]4)cc(F)c3-c3cc4cc(-c5cnc([C@@H]6CCCN6C(=O)C(NC(=O)OC)C6C[C@@H](C)O[C@@H](C)C6)[nH]5)ccc4n32)s1` (single isomer, unassigned) [Compound 143], the IC50 (commonly the concentration needed to halve the response being measured) in the assay on HCV replicon 1A (replicon 1A) stood at 0.111 nM; in the assay with HCV replicon 1B (Hepatitis C virus, replicon 1B), 0.0059 nM.
For the compound `CCc1c2n(c3ccc(-c4cnc(C5CCCN5C(=O)C(NC(=O)OC)C(C)C)[nH]4)cc13)C(c1ccc(C3CC3)s1)Oc1cc(-c3cnc(C4CCCN4C(=O)C(NC(=O)OC)C(C)C)[nH]3)cc(F)c1-2` (single isomer, unassigned) [Compound 838], the IC50 in the assay with HCV replicon 1A (HCV replicon 1A) is 0.0055 nM; with HCV replicon 1B (HCV replicon 1B), 0.0013 nM.
In the case of `COC(=O)N[C@H](C(=O)N1CCC[C@H]1c1ncc(-c2cc3c4c(c2)OC(c2ccc(Cl)s2)n2c-4c(c4cc(-c5cnc([C@@H]6CCCN6C(=O)[C@@H](NC(=O)OC)C(C)C)[nH]5)ccc42)CC3)[nH]1)C(C)C` (stereo partly drawn) [Compound 834], the IC50 was 0.0842 nM in the assay on HCV replicon 1A (setting [1]); 16.7 nM in the assay on HCV replicon 2B (Hepatitis C virus, read-out: 2B IC50, HCV replicon 2B); 0.0488 nM with HCV replicon 1B (Hepatitis C virus, HCV replicon 1B).
Regarding `COC(=O)N[C@H](C(=O)N1CCC[C@H]1c1ncc(-c2cc(F)c3c(c2)OC(c2ccc(C(C)(C)C)s2)n2c-3cc3cc(-c4cnc([C@@H]5CCCN5C(=O)[C@@H](NC(=O)OC)C(C)C)[nH]4)ccc32)[nH]1)C(C)C` (single isomer, unassigned) [Compound 62], the IC50 in the assay on HCV replicon 1AY93H (setting [2]) is 0.69 nM; in the assay with HCV replicon 1A (Hepatitis C virus, replicon 1A) it was 0.0014 nM; with HCV replicon 2B (setting [3]) it was 2.88 nM.
Consider `COC(=O)N[C@@H](Cc1ccccc1)C(=O)N1CCC[C@H]1c1ncc(-c2ccc3c(c2)OC(c2ccc(-c4ccc(NC(=O)CCCC[C@@H]5SC[C@@H]6NC(=O)N[C@@H]65)cc4)s2)n2c-3cc3cc(-c4cnc([C@@H]5CCCN5C(=O)[C@H](Cc5ccccc5)NC(=O)OC)[nH]4)ccc32)[nH]1` (single isomer, unassigned) [Compound 385], for which the IC50 with HCV replicon 1AY93H (setting [4]) was 3.11 nM; with HCV replicon 1A (replicon 1A) it was 0.109 nM; in the assay with HCV replicon 2B (read-out: 2B IC50, replicon 2B), 7.21 nM.
As for `COC(=O)N[C@H](C(=O)N1CCC[C@H]1c1cnc(-c2ccc3c(c2)cc2n3C(c3cc4ccccc4s3)Oc3cc(-c4cnc([C@@H]5CCCN5C(=O)[C@@H](NC(=O)OC)C5CCOCC5)[nH]4)ccc3-2)[nH]1)C1CCOCC1` (single isomer, unassigned) [Compound 809], the IC50 is 0.82 nM in the assay on HCV replicon 1AY93H (setting [5]), 0.016 nM in the assay on HCV replicon 1A (HCV replicon 1A) and 4.2 nM in the assay on HCV replicon 2B (setting [6]).
Take `COC(=O)N[C@H](C(=O)N1CCC[C@H]1c1ncc(-c2cc(F)c3c(c2)OC(c2cc(C)c(C)s2)n2c-3cc3cc(-c4cnc([C@@H]5C[C@@H](F)CN5C(=O)[C@@H](NC(=O)OC)C(C)C)[nH]4)ccc32)[nH]1)C(C)C` (single isomer, unassigned) [Compound 514]: the IC50 with HCV replicon 1AY93H (setting [5]) turned out to be 0.272 nM; in the assay with HCV replicon 1A (HCV replicon 1A) it was 0.0474 nM; in the assay with HCV replicon 2B (setting [6]), 48.5 nM.
With `COC(=O)N[C@H](C(=O)N1CCC[C@H]1c1ncc(-c2cc(F)c3c(c2)OC(c2ccc(C4(N)CC4)s2)n2c-3cc3cc(-c4cnc([C@@H]5CCCN5C(=O)[C@@H](NC(=O)OC)C(C)C)[nH]4)ccc32)[nH]1)C(C)C` (mixture of isomers) [Compound 57], the IC50 in the assay on HCV replicon 1AY93H (setting [2]) is 0.37 nM; with HCV replicon 1A (Hepatitis C virus, replicon 1A) it was 0.0114 nM; with HCV replicon 2B (setting [3]) it was 2.79 nM.
Consider `COC(=O)NC(C(=O)N1[C@@H]2C[C@@H]2C[C@H]1c1ncc(-c2ccc3c(c2)c(F)c2n3C(c3ccc(C4CC4)s3)Oc3cc(-c4cnc([C@@H]5CCCN5C(=O)[C@@H](NC(=O)OC)C(C)C)[nH]4)ccc3-2)[nH]1)C1C[C@@H](C)O[C@@H](C)C1` (single isomer, unassigned) [Compound 643], for which the IC50 in the assay on HCV replicon 1AY93H (setting [5]) is 0.179 nM; in the assay on HCV replicon 1A (HCV replicon 1A), 0.0012 nM; in the assay on HCV replicon 2B (setting [6]), 0.323 nM.
Turning to `COC(=O)N[C@H](C(=O)N1CCC[C@H]1c1ncc(-c2cc(F)c3c(c2)OC(c2ccc(C4CC4)s2)n2c-3c(C)c3cc(-c4cnc([C@@H]5CCCN5C(=O)[C@@H](NC(=O)OC)C(C)C)[nH]4)ccc32)[nH]1)C(C)C` (single isomer, unassigned) [Compound 842], the IC50 in the assay with HCV replicon 1A (HCV replicon 1A) stood at 0.0066 nM; with HCV replicon 1B (HCV replicon 1B), 0.0014 nM.
On to `CCc1ccc(C2Oc3cc(-c4cnc([C@@H]5CCCN5C(=O)C(NC(=O)OC)C5CCOC(C)(C)C5)[nH]4)cc(F)c3-c3cc4cc(-c5cnc([C@@H]6CCCN6C(=O)[C@@H](NC(=O)OC)C(C)C)[nH]5)ccc4n32)s1` (single isomer, unassigned) [Compound 165], for which the IC50 with HCV replicon 1AY93H (setting [4]) came out at 0.27 nM; in the assay on HCV replicon 1A (replicon 1A), 0.002 nM; in the assay on HCV replicon 2B (read-out: 2B IC50, replicon 2B), 0.24 nM.
`COC(=O)NC(C(=O)N1CCC[C@H]1c1ncc(-c2ccc3c(c2)cc2n3C(c3ccc(CC(F)(F)F)s3)Oc3cc(-c4cnc([C@@H]5CCCN5C(=O)[C@@H](NC(=O)OC)C(C)C)[nH]4)cc(F)c3-2)[nH]1)C1C[C@@H](C)O[C@@H](C)C1` (stereo partly drawn) [Compound 381]: the IC50 in the assay on HCV replicon 1AY93H (setting [2]) was 0.141 nM; in the assay with HCV replicon 1A (Hepatitis C virus, replicon 1A) it was 0.0014 nM; in the assay on HCV replicon 2B (setting [3]) it was 0.181 nM.
With `COC(=O)NC(C(=O)N1CCC[C@H]1c1ncc(-c2ccc3c(c2)cc2n3C(c3ccc(C4CC4)s3)Oc3cc(-c4cnc([C@@H]5CCCN5C(=O)[C@@H](NC(=O)OC)C(C)C)[nH]4)cc(F)c3-2)[nH]1)C1CN(C(=O)C2CC2)C1` (single isomer, unassigned) [Compound 269], the IC50 in the assay on HCV replicon 1AY93H (setting [4]) was found to be 0.28 nM; in the assay on HCV replicon 1A (replicon 1A), 0.0026 nM; in the assay with HCV replicon 2B (read-out: 2B IC50, replicon 2B) it was 0.25 nM.
For `COC(=O)NC(C(=O)N1CCC[C@H]1c1ncc(-c2cc(F)c3c(c2)OC(c2ccc(C4CC4)s2)n2c-3cc3cc(-c4cnc([C@@H]5CCCN5C(=O)[C@@H](NC(=O)OC)C(C)C)[nH]4)ccc32)[nH]1)C1CCOC(C)(C)C1` (single isomer, unassigned) [Compound 211], in that order: 0.22 nM, 0.0026 nM and 0.42 nM.
With `COC(=O)NC(C(=O)N1[C@@H]2C[C@@H]2C[C@H]1c1ncc(-c2ccc3c(c2)c(F)c2n3C(c3ccc(C4CC4)s3)Oc3cc(-c4cnc([C@@H]5CCCN5C(=O)[C@@H](NC(=O)OC)C(C)C)[nH]4)cc(F)c3-2)[nH]1)C1CCOC(C)(C)C1` (single isomer, unassigned) [Compound 423], the values for the 50% inhibitory concentration (IC50) in the assay on HCV replicon 1AY93H (setting [5]), with HCV replicon 1A (HCV replicon 1A) and in the assay on HCV replicon 2B (setting [6]) were 0.0042 nM, 0.0021 nM and 0.0096 nM, respectively.
In the case of `COC(=O)NC(C(=O)N1CCCC1c1ncc(-c2cc(F)c3c(c2)OC(c2ccc(C4CCC4)s2)n2c-3cc3cc(-c4cnc(C5CCCN5C(=O)C(NC(=O)OC)C5CC(C)OC(C)C5)[nH]4)ccc32)[nH]1)C(C)C` (single isomer, unassigned) [Compound 373], the IC50 in the assay on HCV replicon 1AY93H (replicon 1AY93H, read-out: 1A Y93H IC50) is 0.248 nM; in the assay with HCV replicon 1A (replicon 1A) it was 0.001 nM; in the assay with HCV replicon 2B (replicon 2B, read-out: 2B IC50) it was 0.156 nM.
Consider `CCc1ccc(C2Oc3cc(-c4cnc([C@@H]5CCCN5C(=O)[C@@H](NC(=O)OC)C(C)C)[nH]4)ccc3-c3c(F)c4cc(-c5cnc([C@@H]6CCCN6C(=O)C(NC(=O)OC)C6C[C@@H](C)O[C@@H](C)C6)[nH]5)ccc4n32)s1` (single isomer, unassigned) [Compound 633], for which the IC50 in the assay with HCV replicon 1AY93H (setting [5]) came to 0.306 nM; with HCV replicon 1A (setting [1]), 0.0013 nM; with HCV replicon 2B (setting [6]), 0.311 nM.
`CCc1ccc(C2Oc3cc(-c4cnc([C@@H]5CCCN5C(=O)C(NC(=O)OC)C5CCOC(C)(C)C5)[nH]4)cc(F)c3-c3cc4cc(-c5cnc([C@@H]6CCCN6C(=O)[C@@H](NC(=O)OC)C(C)C)[nH]5)ccc4n32)s1` (single isomer, unassigned) [Compound 158]: the 50% inhibitory concentration (IC50) in the assay on HCV replicon 1AY93H (setting [4]) is 1.07 nM; with HCV replicon 1A (replicon 1A), 0.0033 nM; in the assay with HCV replicon 2B (read-out: 2B IC50, replicon 2B), 0.43 nM.
For `CCc1ccc(C2Oc3cc(-c4cnc([C@@H]5CCCN5C(=O)[C@@H](NC(=O)OC)C(C)C)[nH]4)cc(F)c3-c3cc4cc(-c5cnc([C@@H]6C[C@@H](F)CN6C(=O)C(NC(=O)OC)C6CCOC(C)(C)C6)[nH]5)ccc4n32)s1` (single isomer, unassigned) [Compound 261] the same measures were 0.043 nM, 0.0015 nM and 9.84 nM.
Turning to `COCCc1ccc(C2Oc3cc(-c4cnc([C@@H]5CCCN5C(=O)[C@@H](NC(=O)OC)C(C)C)[nH]4)cc(F)c3-c3cc4cc(-c5cnc([C@@H]6CCCN6C(=O)[C@@H](NC(=O)OC)C(C)C)[nH]5)ccc4n32)s1` (single isomer, unassigned) [Compound 81], the IC50 came to 0.41 nM in the assay on HCV replicon 1AY93H (setting [2]); 0.0014 nM in the assay with HCV replicon 1A (Hepatitis C virus, replicon 1A); 1.32 nM in the assay with HCV replicon 2B (setting [3]).
